One molecule from US20210369720A1, “SYNERGISTIC COMPOSITION HAVING NEUROPROTECTIVE PROPERTIES AND METHODS OF USE THEREOF” (Rutgers, The State University of New Jersey, priority 2018, published 2021) can be followed below.

The subject of series [1] is TH positive dopaminergic neurons of the substantia nigra. The series is described as follows: Nigral TH positive neuron count, α-Syn PFF inoculated WT mice. The class given is in vivo. The settings on record: each compound individually, PFF alone reduced neurons by 51% vs PBS. The source says: (§1) Thy1-α-synuclein transgenic mice (Syn^Tg) on BDF1 background overexpressing human wild-type α-synuclein under the control of the Thy1 promoter were maintained by mating heterozygous transgenic females with WT BDF1 males (Rockenstein E, et al. (2002) Differential neuropathological alterations in transgenic mice expressing alpha-synuclein from the platelet-derived growth factor and Thy-1 promoters. J Neurosci Res 68(5):568-578). BDF1 mice (mixed C57BL/6-DBA/2) were generated every three months by mating female C57BL/6 (The Jackson Laboratory) and male DBA/2 mice (Charles River). Experiments were performed with male transgenic mice and their WT littermates. […] Wild-type littermates received regular water and control chow. […] At two months of age, mice were inoculated with α-Syn PFF unilaterally in the striatum. These treatments continued throughout the experiment until animals were sacrificed. Mice were weighed and their food and water intake was quantified weekly. Animals were housed 2-5/cage in an AAALAC approved facility in a temperature- and humidity-controlled environment under a 12-hour light/dark cycle and were maintained on a diet of lab chow and water ad libitum. […]

Another series has as its system Syn^Tg mice. Briefly: Rotarod, Syn^Tg mice. The settings on record: EHT 12 mg/kg/day in chow and/or caffeine 50 mg/kg/day in drinking water from weaning until six months of age, vs untreated Syn^Tg mice. The format is in vivo.
Excerpt: as §1
In general terms: Falling from the rotarod earlier than controls is read as motor impairment.

Series [2] has as its system phosphorylated α-synuclein (p-α-Syn). Briefly: Immunohistochemical staining of p-α-Syn, Syn^Tg mice. The class given is in vivo. The settings on record: EHT 12 mg/kg/day and/or caffeine 50 mg/kg/day until six months of age, vs untreated Syn^Tg mice.
Excerpt: as §1, with “weekly.” for “weekly. Animals were housed 2-5/cage in an AAALAC approved facility in a temperature- and humidity-controlled environment under a 12-hour light/dark cycle and were maintained on a diet of lab chow and water ad libitum.”
(§2) Vectastain elite ABC kit (Vector Laboratories, Burlingame, Calif.) and 3,3′-diaminobenzidine (Sigma-Aldrich) were used for amplifying and color development. […] For other stains, the whole microscopic field was analyzed. For p-α-Syn stains in the cortex, four matching regions in each of two sections per animal were counted.

The next series has as its system PP2A. Briefly: Western blot of PP2A methylation, ipsilateral striatal tissue lysates of α-Syn PFF inoculated mice. The format is in vivo. The settings on record: EHT 12 mg/kg/day and/or caffeine 50 mg/kg/day, vs untreated α-Syn PFF inoculated mice. The text has this: Thy1-α-synuclein transgenic mice (Syn^Tg) on BDF1 background overexpressing human wild-type α-synuclein under the control of the Thy1 promoter were maintained by mating heterozygous transgenic females with WT BDF1 males (Rockenstein E, et al. (2002) Differential neuropathological alterations in transgenic mice expressing alpha-synuclein from the platelet-derived growth factor and Thy-1 promoters. J Neurosci Res 68(5):568-578). BDF1 mice (mixed C57BL/6-DBA/2) were generated every three months by mating female C57BL/6 (The Jackson Laboratory) and male DBA/2 mice (Charles River). Experiments were performed with male transgenic mice and their WT littermates. […] Wild-type littermates received regular water and control chow. […] At two months of age, mice were inoculated with α-Syn PFF unilaterally in the striatum. These treatments continued throughout the experiment until animals were sacrificed. Mice were weighed and their food and water intake was quantified weekly. Animals were housed 2-5/cage in an AAALAC approved facility in a temperature- and humidity-controlled environment under a 12-hour light/dark cycle and were maintained on a diet of lab chow and water ad libitum. All animal procedures were approved by the Rutgers-Robert Wood Johnson Medical School Institutional Animal Care and Use Committee and were performed according to the National Institutes of Health Guide for the Care and Use of Laboratory Animals.
α-Syn PFF solution was sonicated at 60% amplitude 30 times (0.5 sec on, 0.5 sec off). During the stereotactic surgery, two month old WT C57BL/6 mice were anesthetized by Ketamine/xylazine (90/4.5 mg/kg, i.p., Ketaset from Zoetis, and Anased from Akorn) and positioned in a digital stereotaxic apparatus (Stoelting, Wood Dale, Ill.). […]
Human neuroblastoma SH-SY5Y cells were cultured in DMEM-F12 with 10% FBS. […] Protein concentration was determined by bicinchonic acid (BCA) method (Pierce), equal amount of protein was separated on 5-20% SDS-PAGE gel (Genescript) and transferred to nitrocellulose or PVDF membrane (Biorad). […]
For orientation: In western blotting, separated proteins are transferred to a membrane and probed.

A further series relates to Iba1. Briefly: Immunohistochemical staining of Iba-1 in the striatum, Syn^Tg mice. The format is in vivo. The settings on record: EHT 12 mg/kg/day and/or caffeine 50 mg/kg/day until six months of age.
Excerpt: Neuroinflammation is one of the neuropathological features of PD and models of α-synucleinopathy including Syn^Tg mice (Lee K W, et al. (2011) Enhanced phosphatase activity attenuates alpha-synucleinopathy in a mouse model. J Neurosci 31(19):6963-6971).
Thy1-α-synuclein transgenic mice (Syn^Tg) on BDF1 background overexpressing human wild-type α-synuclein under the control of the Thy1 promoter were maintained by mating heterozygous transgenic females with WT BDF1 males (Rockenstein E, et al. (2002) Differential neuropathological alterations in transgenic mice expressing alpha-synuclein from the platelet-derived growth factor and Thy-1 promoters. J Neurosci Res 68(5):568-578). BDF1 mice (mixed C57BL/6-DBA/2) were generated every three months by mating female C57BL/6 (The Jackson Laboratory) and male DBA/2 mice (Charles River). Experiments were performed with male transgenic mice and their WT littermates. […] Wild-type littermates received regular water and control chow. […] Mice were weighed and their food and water intake was quantified weekly. […]
as §2

The test system of the next series is dopamine. The series is described as follows: Striatal dopamine content by HPLC-MS, α-Syn PFF inoculated WT mice. The format is in vivo. The settings on record: each compound alone, EHT 12 mg/kg/day or caffeine 50 mg/kg/day, vs untreated α-Syn PFF inoculated mice.
Excerpt: as §1

Another series concerns SH-SY5Y cells. Briefly: Cytotoxicity of α-Syn PFF by propidium iodide (PI) exclusion in SH-SY5Y cells. The class given is cell-based, Human. The settings on record: SH-SY5Y cells challenged with mouse α-Syn PFF for seven days; vs untreated α-Syn PFF-challenged cells (2.5 fold increase of PI positive cells).
Series [3] concerns α-Syn PFF inoculated WT mice. The series is described as follows: Rotarod, α-Syn PFF inoculated WT mice. The class given is in vivo. The settings on record: EHT 12 mg/kg/day in diet and/or caffeine 50 mg/kg/day in drinking water from weaning, 6 months post-inoculation.
Excerpt: as §1

Take `CCCCCCCCCCCCCCCCCCCC(=O)NCCc1c[nH]c2ccc(O)cc12` [EHT, eicosanoyl-5-hydroxytryptamide]: the “prevention of the reduction of TH positive dopaminergic neurons of the substantia nigra” value in series [1] was “did not prevent this reduction”. Besides, in the series with Syn^Tg mice, the “performance on the rotarod” value is “did not improve performance”. Also, the “number of p-α-Syn immunoreactive cells, hippocampus (FIG. 2B)” value in series [2] was “reduced p-α-Syn positive cells”. Besides, in the series on PP2A, the “methyl- to demethyl-PP2A ratio” value is given as “insignificant increase” and the methyl-PP2A levels entry is “insignificant increase”. For the same molecule, the “microglial activation (Iba1) in the striatum” value in the series with Iba1 is listed as “partially but insignificantly attenuated”. For the same molecule, the “dopamine (DA) content in lysates of the ipsilateral striatum, benefit in words” value in the series with dopamine is “did not have a significant benefit”. For the same molecule, in the series on SH-SY5Y cells, the “cytotoxicity of α-Syn PFF, number of PI positive cells (cell viability)” value was “modestly protected”. Further, the “performance on the rotarod” value in series [3] is given as “improved performance”.
